The text below walks through data of patent US10919896B2, “Preparation and uses of pyrimidinone derivatives” (Cancer Research Technology Limited, priority 2016, dated 2021).

In this assay the target is Cdc7/ASK (Homo sapiens, UniProt O00311). Nature of the assay: Cdc7 Biochemical Assay Method 1: 384 well ELISA, whole protein substrate MCM2, antibody against Phospho MCM2 (S53). On the set-up: purchased. The following applies: 2 μM ATP, read-out: Biochemical Method 1 (pIC50) (converted). As for the experimental part: This protocol describes a method for assaying Cdc7/ASK for activity. The assay is a 384 well ELISA assay, utilising a whole protein substrate (MCM2) and an antibody against Phospho MCM2 (S53). This site is thought to be specific to Cdc7/ASK phosphorylation and the assay has been validated using knockout mutants. Reagents • TBS: 25 mM Tris pH 7.2, 150 mM NaCl. (Dilute 10× stock by 1:10). • Wash Buffer: TBS+0.05% Tween 20. (Add 100 mL 1 M Tris pH 7.2, 120 mL 5 M NaCl and 2 mL 100% Tween 20 per 4 L). • Kinase Reaction Buffer: 50 mM Tris-HCl pH 8.5, 10 mM MgCl2, 1 mM DTT. (Dilute 10× stock by 1:10 and add 100 μL 1M DTT per 100 mL prior to assay). • Diethanolamine Buffer: 1 M diethanolamine pH 9.8, 0.5 mM MgCl2. • Stop Solution: 1 M NaOH. • MCM2 was expressed and purified in-house and used in the assay at a final assay concentration of 436 ng/well. • Cdc7/ASK is purchased from commercial suppliers and used in the assay at a final assay concentration of 37.97 ng/well or 20.63 nM. • ATP used as a final assay concentration of 2 μM. • Primary Antibody: Rabbit anti-Phospho MCM2 (S53 Antibody (BL3353)), is purchased from commercial suppliers at 0.2 mg/mL and used at a final assay concentration by diluting 1:800 in TBS. • Secondary Antibody: Anti-Rabbit/AP Antibody is supplied is purchased from commercial suppliers at 1 mg/mL and used at a final assay concentration by diluting 1:2000 in TBS. • Development Reagent: Dissolve one 20 mg PNPP tablet (Sigma, product […], 20 mg per tablet) per 20 mL diethanolamine Buffer (or one 5 mg PNPP tablet per 5 mL diethanolamine buffer). Cover in foil and leave shaking on a roller shaker at room temperature for up to an hour to dissolve. Methods • 1. Add 20 μL 1× working stock of Substrate (MCM2) in TBS to all wells of a clear, 384 well, Nickel-chelate microplate to give a final concentration of […]. Incubate at room temperature for at least 1 hour. Plates can be pre-coated for 1 hour and stored at 4° C. for up to 8 days. • 2. Wash with TBS+0.05% Tween 20 (80 μL×3). • 3. Add 2 μL 10× test compounds, including the positive control, in 40% DMSO/water to 'test' wells. Add 2 μL 40% DMSO/water to 'control' and 'blank' wells. The final DMSO concentration will be 4%. • 4. Add 13 μL CDC7/ASK Kinase (1.5× stock) in Kinase Reaction Buffer to 'test' and 'control' wells to give a final concentration of […]. Add 13 μL Kinase Reaction Buffer to 'blank' wells. • 5. Add 5 μL ATP (4× stock) in Kinase Reaction Buffer to all wells to give a final concentration of 2 μM. • 6. Incubate at room temperature for 90 minutes. • 7. Wash with TBS+0.05% Tween 20 (80 μL×3). • 8. Add 20 μL 1× working solution of Primary Antibody in TBS to all wells. Incubate at room temperature for 30 minutes. • 9. Wash with TBS+0.05% Tween 20 (80 μL×3). • 10. Add 20 μL 1× working solution of Secondary Antibody in TBS to all wells. Incubate at room temperature for 30 minutes. • 11. Wash with TBS+0.05% Tween 20 (80 μL×3). • 12. Add 20 μL 1× Development Reagent to all wells. • 13. Incubate at room temperature for 2 hours. Stop the reaction by adding 20 μL Stop Solution to all wells and record Absorbance on a Pherastar plate reader. Percentage inhibition values were calculated from absorbance values, using the no compound (DMSO) and no enzyme control values as 0% and 100% inhibition, respectively. IC50 determination was performed with ExcelFit software (IDBS) using curve fit 205. Z' factors were determined for each plate tested and were all above 0.5. Method 2
Cdc7/ASK, sequence (O00311 whole entry): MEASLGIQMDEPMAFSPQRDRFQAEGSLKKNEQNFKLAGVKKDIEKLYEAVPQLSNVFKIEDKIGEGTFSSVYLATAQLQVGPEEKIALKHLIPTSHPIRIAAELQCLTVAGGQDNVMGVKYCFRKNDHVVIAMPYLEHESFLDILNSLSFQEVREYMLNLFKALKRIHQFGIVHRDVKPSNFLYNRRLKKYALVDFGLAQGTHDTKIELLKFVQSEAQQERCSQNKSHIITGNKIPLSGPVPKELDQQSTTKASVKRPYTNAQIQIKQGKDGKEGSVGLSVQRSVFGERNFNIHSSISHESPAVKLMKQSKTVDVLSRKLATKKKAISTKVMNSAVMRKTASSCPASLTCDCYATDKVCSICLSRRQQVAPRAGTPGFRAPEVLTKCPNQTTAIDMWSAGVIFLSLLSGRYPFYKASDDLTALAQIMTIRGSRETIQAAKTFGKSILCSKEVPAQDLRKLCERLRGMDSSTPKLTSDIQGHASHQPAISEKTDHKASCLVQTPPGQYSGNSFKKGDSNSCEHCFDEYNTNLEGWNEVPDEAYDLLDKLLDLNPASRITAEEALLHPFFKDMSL
Cdc7/ASK, sequence (Q9UBU7 whole entry partner): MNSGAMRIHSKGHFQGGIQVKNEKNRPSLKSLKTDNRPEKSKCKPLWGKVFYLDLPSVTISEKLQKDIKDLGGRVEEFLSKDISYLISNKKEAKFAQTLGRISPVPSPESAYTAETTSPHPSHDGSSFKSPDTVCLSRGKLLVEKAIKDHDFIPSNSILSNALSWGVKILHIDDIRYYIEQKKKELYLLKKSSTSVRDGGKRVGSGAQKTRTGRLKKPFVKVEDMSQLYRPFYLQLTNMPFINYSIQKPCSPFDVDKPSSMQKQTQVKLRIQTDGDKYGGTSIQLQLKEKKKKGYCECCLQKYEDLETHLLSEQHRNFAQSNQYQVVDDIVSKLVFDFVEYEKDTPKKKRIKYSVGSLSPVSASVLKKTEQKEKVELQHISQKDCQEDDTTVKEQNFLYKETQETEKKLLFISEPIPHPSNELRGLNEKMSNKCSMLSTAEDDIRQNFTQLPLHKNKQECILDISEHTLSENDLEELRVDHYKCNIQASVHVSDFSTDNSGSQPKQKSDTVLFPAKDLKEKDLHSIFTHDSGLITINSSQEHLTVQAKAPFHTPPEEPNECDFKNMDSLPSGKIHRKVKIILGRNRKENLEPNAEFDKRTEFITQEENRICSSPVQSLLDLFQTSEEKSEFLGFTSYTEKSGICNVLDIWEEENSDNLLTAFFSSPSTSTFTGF
In the case of `N#Cc1ccc(C(=O)N2CCC(c3nc(-c4ccncc4)[nH]c(=O)c3Cl)CC2)cc1` [Compound 46], the IC50 is 1.41 nM.

Regarding `CS(=O)(=O)Cc1ccc(C(=O)N2CCC(c3nc(-c4ccncc4)[nH]c(=O)c3Cl)CC2)cc1` [Compound 73], the IC50 was 5.13 nM.

In the case of `O=c1[nH]c(-c2ccncc2)nc(N2CCC(Cc3ccccc3)CC2)c1Cl` [Compound 102], the IC50 was 52.5 nM.

In the case of `O=c1[nH]c(-c2ccncc2)nc(C2(F)CCCNC2)c1Cl` (stereo not shown) [Compound 19], the IC50 is 3.39 nM.

Take `CN(C)C(=O)C1CN(c2nc(-c3ccncc3)[nH]c(=O)c2Cl)CCO1` (stereo not shown) [Compound 97]: the IC50 is 200 nM.

As to `C[C@@H](NC(=O)OC(C)(C)C)C(=O)N1CCC(c2nc(-c3ccncc3)[nH]c(=O)c2Cl)CC1` [Compound 64], the IC50 was 3.98 nM.

On to `C[C@@H]1CN[C@@H](C)CN1c1nc(-c2ccncc2)[nH]c(=O)c1Cl` [Compound 173], for which the IC50 is 85.1 nM.

As for `CC(C)(C)N1CCCN(c2nc(-c3ccncc3)[nH]c(=O)c2Cl)CC1` [Compound 137], the IC50 is 589 nM.

Regarding `CC(C)CCN1CCN(c2nc(-c3ccncc3)[nH]c(=O)c2Cl)CC1` [Compound 83], the IC50 is 166 nM.

In the case of `O=c1[nH]c(-c2ccncc2)nc(C2CNCCO2)c1Cl` (stereo not shown) [Compound 20], the IC50 is 347 nM.

`CC1(c2nc(-c3ccnc(F)c3)[nH]c(=O)c2Cl)CCOCC1` [Compound 10]: the IC50 is 3.02 nM.

Turning to `CC(C)Oc1ccc(C(=O)N2CCC(c3nc(-c4ccncc4)[nH]c(=O)c3Cl)CC2)cc1` [Compound 63], the IC50 was 3.24 nM.

For the molecule `O=C(c1csnn1)N1CCC(c2nc(-c3ccncc3)[nH]c(=O)c2Cl)CC1` [Compound 59], the IC50 is 2.57 nM.

As for `O=c1[nH]c(-c2ccnc(Cl)c2)nc(C2CCOCC2)c1Cl` [Compound 23], the IC50 was 19.1 nM.

As for `Cc1cc(C(=O)N2CCC(c3nc(-c4ccncc4)[nH]c(=O)c3Cl)CC2)n(C)n1` [Compound 56], the IC50 was 1.62 nM.

As to `CC(=O)N1CCN(c2nc(-c3ccncc3)[nH]c(=O)c2Cl)CC1` [Compound 42], the IC50 is 5.13 nM.

On to `O=c1[nH]c(-c2ccncc2)nc(N2CCC3(COC3)C2)c1Cl` [Compound 126], for which the IC50 is 53.7 nM.

As for `CC1CN(c2nc(-c3ccncc3)[nH]c(=O)c2Cl)CC(C)O1` (stereo not shown) [Compound 92], the IC50 was 83.2 nM.

With `O=c1[nH]c(-c2ccncc2)nc(N2CCC(O)C2)c1Cl` (stereo not shown) [Compound 138], the IC50 is 100 nM.

On to `CC(C)(C)OC(=O)NCC(=O)N1CCC(c2nc(-c3ccncc3)[nH]c(=O)c2Cl)CC1` [Compound 35, tert-butyl-N-[2-[4-[5-chloro-6-oxo-2-(4-pyridyl)-1H-pyrimidin-4-yl]-1-piperidyl]-2-oxo-ethyl]carbamate], for which the IC50 is 22.9 nM.

On to `O=c1[nH]c(-c2ccncc2)nc(N2CCCNCC2)c1Cl` [Compound 115], for which the IC50 was 229 nM.

For `Cc1cc(C(=O)N2CCC(c3nc(-c4ccncc4)[nH]c(=O)c3Cl)CC2)nn1C` [Compound 58], the IC50 was 0.912 nM.

Turning to `O=C(c1ccco1)N1CCC(c2nc(-c3ccncc3)[nH]c(=O)c2Cl)CC1` [Compound 51], the IC50 is 5.13 nM.

In the case of `CC(C)(C)OC(=O)N1CCC(F)(c2nc(-c3ccncc3)[nH]c(=O)c2Cl)CC1` [Compound 22], the IC50 is 74.1 nM.

Regarding `NC(=O)[C@H]1CCCN1c1nc(-c2ccncc2)[nH]c(=O)c1Cl` [Compound 118], the IC50 was 380 nM.

Take `O=c1[nH]c(-c2ccncc2)nc(C2CCOCC2)c1F` [Compound 5, 5-fluoro-2-(4-pyridyl)-4-tetrahydropyran-4-yl-1H-pyrimidin-6-one]: the IC50 is 6.31 nM.

Take `CCCC(NC(=O)OC(C)(C)C)C(=O)N1CCC(c2nc(-c3ccncc3)[nH]c(=O)c2Cl)CC1` (stereo not shown) [Compound 74]: the IC50 was 245 nM.

In the case of `O=c1[nH]c(-c2ccnc(O)c2)nc(C2CCOCC2)c1Cl` [Compound 402, 5-chloro-2-(2-hydroxy-4-pyridyl)-4-tetrahydropyran-4-yl-1H-pyrimidin-6-one], the IC50 was 112 nM.

Regarding `CC(C)(C)OC(=O)NCC1CN(c2nc(-c3ccncc3)[nH]c(=O)c2Cl)CCO1` (stereo not shown) [Compound 98], the IC50 was 85.1 nM.

As for `O=c1[nH]c(-c2ccncc2)nc(N2CCN[C@H](CCO)C2)c1Cl` [Compound 174], the IC50 is 30.9 nM.

Regarding `C[C@H]1CN(c2nc(-c3ccncc3)[nH]c(=O)c2Cl)[C@@H](C)CN1` [Compound 172], the IC50 is 12.6 nM.

As for `CN1CCC(c2nc(-c3ccncc3)[nH]c(=O)c2Cl)CC1` [Compound 79], the IC50 is 10.2 nM.

Consider `O=c1[nH]c(-c2ccncc2)nc(C2CCNCC2)c1Cl` [Compound 2, 5-Chloro-6-piperidin-4-yl-2-pyridin-4-yl-3H-pyrimidin-4-one], for which the IC50 is 1.74 nM.

Consider `CC(C)C(=O)N1CCC(c2nc(-c3ccncc3)[nH]c(=O)c2Cl)CC1` [Compound 34, 5-chloro-4-[1-(2-methylpropanoyl)-4-piperidyl]-2-(4-pyridyl)-1H-pyrimidin-6-one], for which the IC50 was 13.2 nM.

In the case of `O=c1[nH]c(-c2ccncc2)nc(N2CCN[C@@H](CCO)C2)c1Cl` [Compound 175], the IC50 was 57.5 nM.

In the case of `N#Cc1cccc(C(=O)N2CCC(c3nc(-c4ccncc4)[nH]c(=O)c3Cl)CC2)c1` [Compound 48], the IC50 was 2.57 nM.

On to `O=c1[nH]c(-c2ccncc2)nc(N2CC(CO)C2)c1Cl` [Compound 124], for which the IC50 is 263 nM.

In the case of `O=C(c1ccccc1Cl)N1CCC(c2nc(-c3ccncc3)[nH]c(=O)c2Cl)CC1` [Compound 66], the IC50 was 14.8 nM.

Turning to `O=c1[nH]c(-c2ccncc2)nc(C2CCOCC2)c1Cl` [Compound 6], the IC50 was 1.45 nM.

`O=c1[nH]c(-c2ccncc2)nc(N2CCN3CC(F)(F)C[C@H]3C2)c1Cl` [Compound 149]: the IC50 was 13.2 nM.

On to `O=C(c1cccc(O)c1)N1CCC(c2nc(-c3ccncc3)[nH]c(=O)c2Cl)CC1` [Compound 50], for which the IC50 is 3.09 nM.

Regarding `O=c1[nH]c(-c2ccncc2)nc(N2CCCC2)c1Cl` [Compound 30], the IC50 was 132 nM.

For `O=c1[nH]c(-c2ccncc2)nc(C2CCOC2)c1Cl` (stereo not shown) [Compound 12], the IC50 was 20 nM.

Regarding `O=c1[nH]c(-c2ccncc2)nc(C2CCCOC2)c1Cl` (stereo not shown) [Compound 16], the IC50 was 12.9 nM.

Take `O=c1[nH]c(-c2ccncc2)nc(C2CCCCO2)c1Cl` (stereo not shown) [Compound 15]: the IC50 is 832 nM.

As to `O=CN1CCCN(c2nc(-c3ccncc3)[nH]c(=O)c2Cl)CC1` [Compound 119], the IC50 is 3.55 nM.

As for `C[C@H](NC(=O)OC(C)(C)C)C(=O)N1CCC(c2nc(-c3ccncc3)[nH]c(=O)c2Cl)CC1` [Compound 71], the IC50 was 14.5 nM.

On to `CC(C)N1CCN(c2nc(-c3ccncc3)[nH]c(=O)c2Cl)CC1` [Compound 86], for which the IC50 is 138 nM.

For `COC(=O)[C@@H]1CN(c2nc(-c3ccncc3)[nH]c(=O)c2Cl)CCN1C(=O)OC(C)(C)C` [Compound 162], the IC50 was 155 nM.

As for `O=C(c1cscn1)N1CCC(c2nc(-c3ccncc3)[nH]c(=O)c2Cl)CC1` [Compound 57], the IC50 is 3.47 nM.

Regarding `CC1CN(c2nc(-c3ccncc3)[nH]c(=O)c2Cl)CC(C)N1` (stereo not shown) [Compound 108], the IC50 is 174 nM.

On to `Cc1cc(C(=O)N2CCC(c3nc(-c4ccncc4)[nH]c(=O)c3Cl)CC2)[nH]n1` [Compound 52], for which the IC50 is 2.63 nM.
